5 molecules from US8067424B2, “Selective inhibitors for cyclin-dependent kinases” (Emory University, priority 2007, dated 2011) can be followed below.

Like-named read-outs stand apart in the source and are kept apart here.

As a reminder, the remaining activity is the signal under treatment as a percentage of the control signal. In general, IC50 refers to the concentration that gives 50% inhibition. Read a high IC50 as lower potency.

What all share (format): biochemical
For one experiment, the target named is PAK6 (Homo sapiens, UniProt Q9NQU5). The experiment can be described thus: Kinase screen: PAK6 assay. How it is done:
(§1) Generally, the same procedure was used for all assays. Since the total assay volume was 25.5 microliters, 0.5 microliters of inhibitors at 51× assay concentration were added to the plates before any other addition.
(§2) The basic procedure was to add 0.5 microliters inhibitor/control in DMSO to plate. Fifteen microliters of enzyme/substrate/buffer mix were added and incubated for 5 min. Ten microliters MgATP at the relevant concentration were added and incubated for 30 min. The assay was stopped by adding 5 microliters of 3% orthophosphoric acid. The assay was transferred to a p81 filter plate and read in a scintillation counter of 30 sec/well. Note that this assay procedure was not followed for MKK1, which instead involved a two-step assay, and PKC alpha, which required the addition of lipid vesicles.
PAK6 assay: PAK6 (5-20 mU diluted in 50 mM Tris pH 7.5, 0.1 mM EGTA, 0.1% b-mercaptoethanol, 1 mg/ml BSA) was assayed against a substrate peptide ([…]) (SEQ ID NO: 30) in a final volume of 25.5 μl containing 50 mM Tris pH 7.5, 0.05% b-mercaptoethanol, 300 μM substrate peptide, 10 mM magnesium acetate and 0.02 mM [33P-g-ATP] (50-1000 cpm/pmole) and incubated for 30 min at room temperature. Assays were stopped by addition of 5 μl of 0.5 M (3%) orthophosphoric acid and then harvested onto P81 Unifilter plates with a wash buffer of 50 mM orthophosphoric acid.

Another experiment has as its target EPH-A2 (Homo sapiens, UniProt P29317). The experiment can be described thus: Kinase screen: EPH-A2 assay. To be noted: 10 micromolar compound; for remaining activity at 10 µM: read-out: mean activity remaining (as a percentage of the original activity), EPH A2. How it is done: as §1, §2
EPH-A2 assay: EPH-A2 (5-20 mU diluted in 50 mM Tris pH 7.5, 0.1 mM EGTA, 1 mg/ml BSA) was assayed against a substrate peptide (Poly Glut Tyr) in a final volume of 25.5 μl containing 50 mM Tris pH 7.5, 0.1 mg/ml substrate peptide, 10 mM magnesium acetate and 0.05 mM [33P-g-ATP] (50-1000 cpm/pmole) and incubated for 30 min at room temperature. Assays were stopped by addition of 5 μl of 0.5 M (3%) orthophosphoric acid and then harvested onto P81 Unifilter plates with a wash buffer of 50 mM orthophosphoric acid.

Another experiment concerns the target CDK2-Cyclin A (Homo sapiens, UniProt P24941). The experiment can be described thus: Kinase screen: CDK2/cyclin A assay. As to the method: Generally, the same procedure was used for all assays.
as §2
CDK2/cyclin A assay: CDK2/cyclin A (5-20 mU diluted in 50 mM Hepes pH 7.5, 1 mM DTT, 0.02% Brij35, 100 mM NaCl) was assayed against Histone H1 in a final volume of 25.5 μl containing 50 mM Hepes pH7.5, 1 mM DTT, 0.02% Brij35, 100 mM NaCl, Histone H1 (1 mg/ml), 10 mM magnesium acetate and 0.02 mM [33P-g-ATP] (500-1000 cpm/pmole) and incubated for 30 min at room temperature. Assays were stopped by addition of 5 μl of 0.5 M (3%) orthophosphoric acid and then harvested onto P81 Unifilter plates with a wash buffer of 50 mM orthophosphoric acid.

In another experiment the target is PAK4 (Homo sapiens, UniProt O96013). The experiment can be described thus: Kinase screen: PAK4 assay. How it is done: as §1, §2
Sequence of PAK4 (O96013 whole entry, species assumed): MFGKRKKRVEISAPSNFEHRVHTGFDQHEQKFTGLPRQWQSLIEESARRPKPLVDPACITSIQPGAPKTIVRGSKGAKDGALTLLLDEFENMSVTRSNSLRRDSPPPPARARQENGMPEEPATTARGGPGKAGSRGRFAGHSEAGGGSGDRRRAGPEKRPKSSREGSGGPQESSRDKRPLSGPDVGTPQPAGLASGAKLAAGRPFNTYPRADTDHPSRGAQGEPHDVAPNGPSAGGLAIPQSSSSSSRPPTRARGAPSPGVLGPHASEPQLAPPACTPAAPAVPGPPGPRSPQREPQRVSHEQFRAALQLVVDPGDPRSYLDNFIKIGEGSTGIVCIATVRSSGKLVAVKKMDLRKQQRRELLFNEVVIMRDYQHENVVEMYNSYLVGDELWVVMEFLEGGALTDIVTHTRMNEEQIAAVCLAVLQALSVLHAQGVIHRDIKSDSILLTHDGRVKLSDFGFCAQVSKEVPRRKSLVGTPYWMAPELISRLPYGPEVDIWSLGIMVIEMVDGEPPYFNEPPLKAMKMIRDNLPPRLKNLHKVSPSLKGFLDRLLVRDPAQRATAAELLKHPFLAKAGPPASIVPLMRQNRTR
PAK4 assay: PAK4 (5-20 mU diluted in 50 mM Tris pH 7.5, 0.1 mM EGTA, 0.1% b-mercaptoethanol, 1 mg/ml BSA) was assayed against a substrate peptide ([…]) (SEQ ID NO: 30) in a final volume of 25.5 μl containing 50 mM Tris pH 7.5, 0.05% b-mercaptoethanol, 300 μM substrate peptide, 10 mM magnesium acetate and 0.005 mM [33P-g-ATP] (50-1000 cpm/pmole) and incubated for 30 min at room temperature. Assays were stopped by addition of 5 μl of 0.5 M (3%) orthophosphoric acid and then harvested onto P81 Unifilter plates with a wash buffer of 50 mM orthophosphoric acid.

Another experiment has as its target T1, NEK2a (Homo sapiens, UniProt P51955).
T1 sequence (P51955 1-445): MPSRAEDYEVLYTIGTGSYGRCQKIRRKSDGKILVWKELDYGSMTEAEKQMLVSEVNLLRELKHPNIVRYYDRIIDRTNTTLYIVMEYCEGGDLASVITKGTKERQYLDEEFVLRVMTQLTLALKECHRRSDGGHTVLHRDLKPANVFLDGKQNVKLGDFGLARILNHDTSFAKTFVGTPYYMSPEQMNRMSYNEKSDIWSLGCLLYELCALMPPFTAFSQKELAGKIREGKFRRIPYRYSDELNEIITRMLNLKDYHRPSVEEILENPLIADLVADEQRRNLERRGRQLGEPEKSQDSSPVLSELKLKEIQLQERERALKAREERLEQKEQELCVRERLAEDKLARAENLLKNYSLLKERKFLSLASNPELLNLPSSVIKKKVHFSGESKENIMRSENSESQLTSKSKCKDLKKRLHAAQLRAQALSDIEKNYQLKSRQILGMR
Briefly: Kinase screen: NEK2a assay. How it is done: as §1, §2
NEK2a assay: 5-20 mU of NEK2a (diluted in 50 mM Tris (pH 7.5), 0.1 mM EGTA, 1 mg/ml BSA, 0.1%, b-Mercaptoethanol) was assayed against NEK2a peptide ([…]) (SEQ ID NO: 19) in a final volume of 25.5 μl containing 50 mM Tris (pH 7.5), 0.1 mM EGTA, 0.01% Brij, 0.1%, b-Mercaptoethanol, 300 μM NEK2a peptide, 10 mM magnesium acetate and 0.05 mM [33P-g-ATP] (500-1000 cpm/pmole) and incubated for 30 mins at room temperature. Assays were stopped by addition of 5 µl of 0.5M (3%) orthophosphoric acid. Assays were harvested onto P81 Unifilter plates using a wash buffer of 50 mM orthophosphoric acid.

Where [1] appears, read: 10 micromolar compound, read-out: mean activity remaining (as a percentage of the original activity), PAK6.
The mark [2] stands for this setting: 10 micromolar compound, read-out: mean activity remaining (as a percentage of the original activity), CDK 2 - Cyelin A.
The mark [3] stands for this setting: 10 micromolar compound, read-out: mean activity remaining (as a percentage of the original activity), PAK4.
The mark [4] stands for this setting: 10 micromolar compound, read-out: mean activity remaining (as a percentage of the original activity), NEK 2a.

Sequence of PAK6 (Q9NQU5 whole entry, species assumed): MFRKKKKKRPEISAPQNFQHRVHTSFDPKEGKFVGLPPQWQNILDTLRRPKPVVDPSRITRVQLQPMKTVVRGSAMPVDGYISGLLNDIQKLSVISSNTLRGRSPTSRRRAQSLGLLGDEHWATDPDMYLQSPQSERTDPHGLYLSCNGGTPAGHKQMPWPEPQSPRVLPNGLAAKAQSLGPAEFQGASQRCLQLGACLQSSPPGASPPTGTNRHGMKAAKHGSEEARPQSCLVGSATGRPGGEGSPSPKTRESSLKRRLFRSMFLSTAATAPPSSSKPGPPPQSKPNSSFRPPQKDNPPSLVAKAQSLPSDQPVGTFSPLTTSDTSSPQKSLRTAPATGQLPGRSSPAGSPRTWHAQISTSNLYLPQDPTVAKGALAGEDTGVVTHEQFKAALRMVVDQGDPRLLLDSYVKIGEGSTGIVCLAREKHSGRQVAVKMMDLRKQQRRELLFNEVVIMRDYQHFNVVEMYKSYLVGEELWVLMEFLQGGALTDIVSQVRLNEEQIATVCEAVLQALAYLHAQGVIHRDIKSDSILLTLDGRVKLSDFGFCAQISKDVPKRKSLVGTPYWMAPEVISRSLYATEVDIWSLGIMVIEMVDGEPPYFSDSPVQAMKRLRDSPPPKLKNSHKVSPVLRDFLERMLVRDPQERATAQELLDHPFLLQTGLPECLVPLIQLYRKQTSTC
Sequence of EPH-A2 (P29317 24-976, species assumed): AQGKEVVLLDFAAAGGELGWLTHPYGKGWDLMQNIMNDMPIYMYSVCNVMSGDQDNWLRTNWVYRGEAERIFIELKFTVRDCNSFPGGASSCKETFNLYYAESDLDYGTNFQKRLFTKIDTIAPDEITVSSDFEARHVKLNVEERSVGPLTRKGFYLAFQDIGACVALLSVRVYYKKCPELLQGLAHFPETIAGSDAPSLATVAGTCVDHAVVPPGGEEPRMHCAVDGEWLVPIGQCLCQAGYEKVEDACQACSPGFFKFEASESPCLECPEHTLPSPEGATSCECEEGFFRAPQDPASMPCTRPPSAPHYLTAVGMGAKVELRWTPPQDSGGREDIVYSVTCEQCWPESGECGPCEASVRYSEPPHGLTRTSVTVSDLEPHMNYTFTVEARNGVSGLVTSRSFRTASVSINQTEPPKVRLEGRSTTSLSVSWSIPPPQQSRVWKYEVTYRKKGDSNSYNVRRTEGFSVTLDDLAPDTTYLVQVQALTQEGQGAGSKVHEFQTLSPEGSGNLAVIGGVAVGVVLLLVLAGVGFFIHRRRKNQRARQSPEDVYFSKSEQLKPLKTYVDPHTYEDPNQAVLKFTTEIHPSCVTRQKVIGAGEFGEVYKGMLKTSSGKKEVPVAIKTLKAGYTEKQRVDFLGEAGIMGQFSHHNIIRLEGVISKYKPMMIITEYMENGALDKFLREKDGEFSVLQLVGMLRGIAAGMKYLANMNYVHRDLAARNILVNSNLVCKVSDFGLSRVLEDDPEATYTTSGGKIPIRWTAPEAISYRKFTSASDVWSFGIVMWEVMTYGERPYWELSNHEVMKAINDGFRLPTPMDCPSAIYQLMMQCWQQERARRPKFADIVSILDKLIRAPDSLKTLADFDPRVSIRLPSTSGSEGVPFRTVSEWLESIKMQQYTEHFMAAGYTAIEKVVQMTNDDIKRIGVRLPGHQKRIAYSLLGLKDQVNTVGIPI

For the molecule `CC[C@H](CO)Nc1cc(NCc2ccccc2)n2ncc(C(C)C)c2n1` [ICEC0067], the remaining activity at 10 µM was determined as 78% at PAK6 (setting [1]); 101% at EPH-A2; 5% on CDK2-Cyclin A (setting [2]); 75% at PAK4 (setting [3]); 75% on NEK2a (setting [4]).
`C=C[C@H](CO)Nc1cc(NCc2ccccc2)n2ncc(C(C)C)c2n1` [ICEC0065]: the remaining activity at 10 µM on PAK6 (setting [1]) was found to be 82%; at EPH-A2 it was 109%; on CDK2-Cyclin A (setting [2]), 3%; at PAK4 (setting [3]), 82%; on NEK2a (setting [4]) it was 96%.
`CC(C)c1cnn2c(NCc3ccccc3)cc(N[C@@H](CO)[C@H](O)CO)nc12` [ICEC0318, (3S)-3-(7-(Benzylamino)-3-isopropylpyrazolo[1,5-a]pyrimidin-5-ylamino)butane-1,2,4-triol]: the remaining activity at 10 µM worked out at 85% at PAK6 (setting [1]), 116% at EPH-A2, 55% at PAK4 (setting [3]) and 102% at NEK2a (setting [4]).
Turning to `CC(C)c1cnn2c(NCc3ccccc3F)cc(NCCCCCN)nc12` [ICEC-0232], on PAK6 (10 micromolar compound), the “mean activity remaining (as a percentage of the original activity), PAK6” value is 85%. Also, on EPH-A2, the “mean activity remaining (as a percentage of the original activity), EPH A2” value is 92%. Moreover, the “mean activity remaining (as a percentage of the original activity), CDK 2 - Cyelin A” value at CDK2-Cyclin A (10 micromolar compound) was 9%. The “mean activity remaining (as a percentage of the original activity), PAK4” value at PAK4 (10 micromolar compound) came to 58%. Besides, the “mean activity remaining (as a percentage of the original activity), NEK 2a” value on NEK2a (10 micromolar compound) came to 83%.
Regarding `CC(C)c1cnn2c(NCc3ccccc3)cc(NCCCCCCCN)nc12` [BS-181], the remaining activity at 10 µM on PAK6 (PAK6, 10 μM, read-out: Mean Remaining Enzyme Activity (%)) is 95%; at CDK2-Cyclin A (CDK2-Cyclin A, 10 μM, read-out: Mean Remaining Enzyme Activity (%)) it was 9%; at PAK4 (PAK4, 10 μM, read-out: Mean Remaining Enzyme Activity (%)) it was 75%; on NEK2a (NEK2a, 10 μM, read-out: Mean Remaining Enzyme Activity (%)), 92%. Moreover, the IC50 on CDK2-Cyclin A (kinase screen) turned out to be 750 nM.
